Reference: US11905306B2 (priority 2021, dated 2024)

What was measured:
in vitro = settings: African green monkey
SARS-2 [1] = test system: SARS-2
USA_WA1/2020 SARS CoV-2 = assay: microbe, parasite or virus in culture; type: cell-based; settings: Severe acute respiratory syndrome coronavirus 2, Vero C1008, 72 h, read-out: SARS-2 EC50 (μM) VeroE6
SARS-2 [2] = assay: microbe, parasite or virus in culture; type: cell-based; settings: Severe acute respiratory syndrome coronavirus 2, read-out: SARS-2 VU-EC50 (μM) (A549-hACE2)
Toronto 2 SARS CoV-1 = assay: organism not typed; type: cell-based; settings: Vero C1008, 72 h, read-out: SARS-1 EC50 (μM) VeroE6

Compound | CC50 (in vitro) | SARS-2 VU-VTR @ 20 μM (A549-hACE2) (logs) (SARS-2 [1]) | EC50 (USA_WA1/2020 SARS CoV-2) | EC50 (SARS-2 [2]) | EC50 (Toronto 2 SARS CoV-1)
O=C(Nc1cccc(C#Cc2ccccn2)c1)c1ccc(N2CCCCC2=O)cc1 [Compound 22, 4-(2-Oxopiperidin-1-yl)-N-(3-(pyridin-2-ylethynyl)phenyl)benzamide] | > 30000 nM | 2.4 logs | 1.87 µM | 1.05 µM | 1.3 µM
CC1(C)CN(c2ccc(NC(=O)c3cccc(C#Cc4ccccn4)c3)cc2)C1=O [Compound 58, N-(4-(3,3-dimethyl-2-oxoazetidin-1-yl)phenyl)-3-(pyridin-2-ylethynyl)benzamide] | > 40000 nM | 1.93 logs | 0.5 µM | 0.38 µM | 0.3 µM
O=C1CCCc2cc(C(=O)Nc3cccc(C#Cc4ccccn4)c3)ccc2N1 [Compound 4, 2-Oxo-N-(3-(pyridin-2-ylethynyl)phenyl)-2,3,4,5-tetrahydro-1H-benzo[b]azepine-7-carboxamide] | 22900 nM | 2.55 logs | 1.5 µM | 1.5 µM | 1.39 µM
COc1cc(C#Cc2ccccn2)cc(NC(=O)c2ccc3c(c2)CCC(=O)N3)c1 [Compound 46, N-(3-Methoxy-5-(pyridin-2-ylethynyl)phenyl)-2-oxo-1,2,3,4-tetrahydroquinoline-6-carboxamide] | > 30000 nM | 2.66 logs | 0.78 µM | 0.53 µM | 0.83 µM
COc1cc(C#Cc2ccccn2)cc(NC(=O)c2ccc(N3CCCCC3=O)cc2)c1 [Compound 48, N-(3-Methoxy-5-(pyridin-2-ylethynyl)phenyl)-4-(2-oxopiperidin-1-yl)benzamide] | > 30000 nM | 3.08 logs | 0.45 µM | 0.1 µM | 0.21 µM
O=C(Nc1ccc(N2CCCCC2=O)cc1)c1cccc(C#Cc2ccccn2)c1 [Compound 59, N-(4-(2-oxopiperidin-1-yl)phenyl)-3-(pyridin-2-ylethynyl)benzamide] | > 30000 nM | 2.98 logs | 2 µM | 0.66 µM | 1.05 µM
CN1C(=O)CCc2cc(C(=O)Nc3cccc(C#Cc4ccccn4)c3)ccc21 [Compound 2, 1-Methyl-2-oxo-N-(3-(pyridin-2-ylethynyl)phenyl)-1,2,3,4-tetrahydroquinoline-6-carboxamide] | > 30000 nM | 3.32 logs | 2.55 µM | 3.59 µM | 1.46 µM
O=C(Nc1ccc(C(=O)OCC2CC2)cc1)c1cccc(C#Cc2ccccn2)c1 [Compound 66, Cyclopropylmethyl 4-(3-(pyridin-2-ylethynyl)benzamido)benzoate] | > 30000 nM | 1.73 logs | 0.83 µM | 0.46 µM | 0.49 µM
O=C(Nc1ccc(N2CCCCS2(=O)=O)cc1)c1cccc(C#Cc2ccccn2)c1 [Compound 70, N-(4-(1,1-dioxido-1,2-thiazinan-2-yl)phenyl)-3-(pyridin-2-ylethynyl)benzamide] | > 30000 nM | 2.47 logs | 1.08 µM | 0.82 µM | 1.29 µM
CC(=O)Nc1ccc(C(=O)Nc2cccc(C#Cc3ccccn3)c2)cc1 [Compound 5, 4-Acetamido-N-(3-(pyridin-2-ylethynyl)phenyl)benzamide] | > 30000 nM | 2.05 logs | 3.89 µM | 3.58 µM | 2.14 µM
CC(C)OC(=O)c1ccc(NC(=O)c2cccc(C#Cc3ccccn3)c2)cc1 [Compound 65, Isopropyl 4-(3-(pyridin-2-ylethynyl)benzamido)benzoate] | > 30000 nM | 2.78 logs | 0.46 µM | 0.29 µM | 0.16 µM
CCOP(=O)(OCC)c1ccc(NC(=O)c2cccc(C#Cc3ccccn3)c2)cc1 [Compound 73, Diethyl (4-(3-(pyridin-2-ylethynyl)benzamido)phenyl)phosphonate] | > 30000 nM | 2.93 logs | 0.45 µM | 0.003 µM | 0.18 µM
CC(C)N1CCN(c2ccc(C(=O)Nc3cccc(C#Cc4ccccn4)c3)cc2)C1=O [Compound 17, 4-(3-Isopropyl-2-oxoimidazolidin-1-yl)-N-(3-(pyridin-2-ylethynyl)phenyl)benzamide] | > 30000 nM | 2.12 logs | 0.61 µM | 0.43 µM | 2.37 µM
O=C(Nc1ccc(C(=O)Nc2cccc(C#Cc3ccccn3)c2)cc1)c1ccc(F)cc1 [Compound 26, 4-Fluoro-N-(4-((3-(pyridin-2-ylethynyl)phenyl)carbamoyl)phenyl)benzamide] | > 30000 nM | 1.16 logs | 0.49 µM | 0.69 µM | 0.35 µM
CC(=O)Nc1ccc(C(=O)Nc2cccc(C#Cc3ccccn3)c2)cc1F [Compound 29, 4-Acetamido-3-fluoro-N-(3-(pyridin-2-ylethynyl)phenyl)benzamide] | > 30000 nM | 2.6 logs | 1.07 µM | 1.86 µM | 0.76 µM
COC(=O)c1ccc(C(=O)Nc2cccc(C#Cc3ccccn3)c2)cc1 [Compound 43, Methyl 4-((3-(pyridin-2-ylethynyl)phenyl)carbamoyl)benzoate] | > 30000 nM | 2.36 logs | 0.52 µM | 0.58 µM | 0.26 µM

Compound | CC50 (in vitro) | SARS-2 VU-VTR @ 20 μM (A549-hACE2) (logs) (SARS-2 [1]) | EC50 (USA_WA1/2020 SARS CoV-2) | EC50 (SARS-2 [2]) | EC50 (Toronto 2 SARS CoV-1)
COC(=O)c1cccc(NC(=O)c2cccc(C#Cc3ccccn3)c2)c1 [Compound 64, Methyl 3-(3-(pyridin-2-ylethynyl)benzamido)benzoate] | 21700 nM | – | > 30 µM | – | 4.19 µM
O=C(Nc1cccc(C#Cc2ccccn2)c1)c1ccc(N2CCN(CC3CCC3)CC2=O)cc1 [Compound 33, 4-(4-(Cyclobutylmethyl)-2-oxopiperazin-1-yl)-N-(3-(pyridin-2-ylethynyl)phenyl)benzamide] | > 30000 nM | – | > 30 µM | – | 4.62 µM
CN(C)c1ccc(C(=O)Nc2cccc(C#Cc3ccccn3)c2)cc1 [Compound 42, 4-(Dimethylamino)-N-(3-(pyridin-2-ylethynyl)phenyl)benzamide] | > 30000 nM | – | 6.52 µM | – | 1.57 µM
CC(=O)Nc1ccc(NC(=O)c2cccc(C#Cc3ccccn3)c2)cn1 [Compound 71, N-(6-acetamidopyridin-3-yl)-3-(pyridin-2-ylethynyl)benzamide] | > 30000 nM | – | 4.13 µM | – | 3.98 µM
CC1(C)CN(c2ccc(C(=O)Nc3cccc(C#Cc4ccccn4)c3)cc2)C1=O [Compound 21, 4-(3,3-Dimethyl-2-oxoazetidin-1-yl)-N-(3-(pyridin-2-ylethynyl)phenyl)benzamide] | > 30000 nM | – | 0.32 µM | – | 0.52 µM
CC(C)(C)c1ccc(NC(=O)c2cccc(C#Cc3ccccn3)c2)cc1 [Compound 67, N-(4-(tert-butyl)phenyl)-3-(pyridin-2-ylethynyl)benzamide] | > 30000 nM | – | 4.25 µM | – | 3.51 µM
O=C(Nc1cccc(C#Cc2ccccn2)c1)c1ccc(NC(=O)N2CCOCC2)cc1 [Compound 13, N-(4-((3-(Pyridin-2-ylethynyl)phenyl)carbamoyl)phenyl)morpholine-4-carboxamide] | > 40000 nM | – | 8.25 µM | – | 7.94 µM
Cc1nc2ccc(C(=O)Nc3cccc(C#Cc4ccccn4)c3)cc2o1 [Compound 34, 2-Methyl-N-(3-(pyridin-2-ylethynyl)phenyl)benzo[d]oxazole-6-carboxamide] | 26100 nM | – | 2.11 µM | – | 2.01 µM
O=C(Nc1cccc(C#Cc2ccccn2)c1)c1ccc(N2CCCC3(CCC3)C2=O)cc1 [Compound 36, 4-(5-Oxo-6-Azaspiro[3.5]nonan-6-yl)-N-(3-(pyridin-2-ylethynyl)phenyl)benzamide] | 15300 nM | – | 0.49 µM | – | 0.35 µM
COc1cc(C#Cc2ccccn2)cc(C(=O)Nc2ccc(N3CCCCS3(=O)=O)cc2)c1 [Compound 75, N-(4-(1,1-dioxido-1,2-thiazinan-2-yl)phenyl)-3-methoxy-5-(pyridin-2-ylethynyl)benzamide] | > 30000 nM | – | 0.128 µM | – | 0.065 µM
CC(=O)Nc1ccc(C(=O)Nc2cccc(C#Cc3ccccn3)c2)cc1O [Compound 30, 4-Acetamido-3-hydroxy-N-(3-(pyridin-2-ylethynyl)phenyl)benzamide] | > 30000 nM | – | 4.37 µM | – | 6.18 µM
O=C(Nc1ccc(N2CCCS2(=O)=O)cc1)c1cccc(C#Cc2ccccn2)c1 [Compound 74, N-(4-(1,1-dioxidoisothiazolidin-2-yl)phenyl)-3-(pyridin-2-ylethynyl)benzamide] | > 30000 nM | – | > 30 µM | – | 0.91 µM
CC1(NC(=O)c2ccc(NC(=O)c3cccc(C#Cc4ccccn4)c3)cc2)CC1 [Compound 61, N-(4-((1-methylcyclopropyl)carbamoyl)phenyl)-3-(pyridin-2-ylethynyl)benzamide] | > 30000 nM | – | 0.71 µM | – | > 30 µM
O=C(Nc1cccc(C#Cc2ccccn2)c1)c1ccc(N2CCCCS2(=O)=O)cc1 [Compound 77] | > 30000 nM | – | 0.957 µM | – | 0.791 µM
O=C(Nc1ccc(N2CCC2=O)cc1)c1cccc(C#Cc2ccccn2)c1 [Compound 57, N-(4-(2-oxoazetidin-1-yl)phenyl)-3-(pyridin-2-ylethynyl)benzamide] | > 30000 nM | – | 4.01 µM | – | 1.74 µM
